Results as given in patent US9861647B2 (Prelief Inc., priority 2007, dated 2018).
Entries after “also recorded” stand apart in the source; their conditions may differ.

What was measured:
[1] = tested on: histamine, leukotriene C4/D4/E4, prostaglandin D2 and E2 in nasal lavage fluid; assay: Mediators (histamine, leukotrienes, prostaglandins) in nasal lavage fluid after intranasal ragweed challenge; format: in vivo, Beagle dogs
Description: (§1) Ragweed sensitized beagle dogs (n=5) with preexisiting nasal and airway allergic responses were utilized in the animal study described in this Example. Dogs served as their own control and initially were treated with vehicle (sterile water) and then rested for 5 weeks prior to receiving the test compound. […] Based on the aerosol testing only 1.6 mg/dog could be delivered by inhalation during a 15 minute exposure (20 mg/ml solution). In addition, each dog received twice daily an intranasal instillation of 30 mg (2×375 μl of 20 mg/ml in each nostril) given within 30 minutes after the end of the inhalation exposures.
FIG. 1 summarizes the study design for characterizing the effects of CGP on rhinitis symptoms in ragweed sensitized Beagle dogs. The baseline nasal cavity volume was first measured 3 days (day −3) before each of the vehicle and CGP treatments. The dogs were treated with vehicle or CGP (day 0) twice daily with the target dosage described above. Three days into the vehicle or CGP treatment, nasal challenge with ragweed was performed (day 3). Treatment with vehicle or CGP continued during the assessment of rhinitis endpoints, e.g., total treatment duration=6 days (day 0-5) for each of the vehicle and CGP treatments. There were 5 weeks following the first intranasal RW challenge during the vehicle treatment and the CGP treatment.
(§2) Vehicle (sterile water) was given twice daily by inhalation (15 minutes) followed by intranasal instillation of water (2×250 μl in each nostril). […] The test-article and the compound solution were prepared in the morning of each treatment day. Vehicle and test-article were administered by inhalation and intranasal instillation twice a day. Dosing of vehicle or test compound was achieved by utilizing a face mask connected to a jet nebulizer for inhalation delivery followed by intranasal instillation in both nostrils using an Accuspray device.
Rhinitis assessments were conducted using one or more of the following tests. • Nasal cavity geometry (AcR) pre/post antigen challenge in both nares • 1. time 0 (just prior to RW instillation) • 2. at 15, 30, 45, 60, 75, 90 min, 24 h and 48 h post RW challenge • Nasal lavage of both nares at baseline and at 24 h (Day 4) and 48 h (Day 5) post RW instillation and only one side at 15, 30, 45 and 60 min post RW challenge (Day 3) • 1. Release of histamine, leukotrienes and prostaglandins in nasal lavage fluid baseline (prior to compound or RW treatment/challenge), 15, 30, 45, 60 min and 24 h post RW instillation • 2. Nasal lavage cells from the baseline (Day-3), 24 h (Day 4) and 48 h (Day 5) hour lavage were used for determination of inflammatory cell differentials • 3. Excess nasal lavage fluid was frozen for analysis of cytokines. • Cardiovascular readouts (heart rate, O2 saturation, body temperature) throughout nasal congestion measurement.
While under anesthesia a flexible plastic catheter was inserted several centimeters into the dog's nare. The nare was washed with a phosphate buffered saline solution (PBS; 3×5 ml for collection of cells [baseline, 24 and 48 h post RW challenge]; 1×5 ml for collection of fluid for mediators [15, 30, 45, and 60 minutes post RW challenge]).
Total nasal cells were determined using an automatic cell counter. Cells were spun onto slides by cytocentrifugation and stained with a modified Wright-Giemsa stain. At least four hundred inflammatory cells (or less if applicable) were counted and the percentage of specific cell types determined for each animal (slides in duplicates, 200 cells per slide). The first lavage fluid sample (after centrifugation) was frozen separately for mediator analysis. Mediator analysis for histamine, leukotrienes, and prostaglandins were performed according to the kit manufacturer instructions (Immunotech—Beckman Coulter Company #IM2015, Neogen Corporation #406410, Cayman Chemical Company: PGE2—#514010, PGD2—#512011, respectively). […]

[2] = Tolerability in dogs: daily observations, body weights, blood chemistry; format: in vivo, Beagle dogs
Description: as §1, §2
Blood sample was collected by placing a venous (cephalic or saphenous) catheter in the leg prior to anesthesia or by venipuncture (jugular) using a syringe or needle-vacutainer. […]

[3] = pH of the nebulizer solution; format: physicochemical; settings: 20 mg/ml in sterile water
Description: as §2
Treatment occurred on Days 0 to 5 (only AM on Day 5). Vehicle and compound were delivered in the morning (8:15-9:10 am) and the afternoon (2:00-3:30 pm). On days when acoustic rhinometry procedures were performed (Days 0), the morning dosing occurred such that the procedures were performed within 1-6 h after dosing. The pH of the compound (as administered for nasal inhalation) was recorded prior to administration. As identified in the aerosol exposure the average pH of the nebulizer solution was 8.85.

[4] = before and after ragweed challenge, vs vehicle, n=5, One Way Anova, Dunnett's posttest

## calcium glycerophosphate
[1]; [4]
  histamine levels in nasal lavage fluid: no statistical significance was reached
  levels of leukotriene C4/D4/E4 in nasal lavage fluid: no statistical significance was reached
  prostaglandin D2 levels in nasal lavage fluid: no statistical significance was reached
  prostaglandin E2 levels in nasal lavage fluid: Levels of PGE2 decreased following ragweed challenge; also recorded: no statistical significance was reached
[1]; compound vs vehicle treatment, statistical significance not reached
  histamine, leukotriene and prostaglandin D2 and E2 levels in nasal lavage fluid: partially altered
[1]; vs vehicle, Two Way Anova p<0.009, no significance at individual time points
  prostaglandin E2 levels normalized to baseline (T0 = 100%): a greater reduction in PGE2 levels following RW challenge; also recorded: significantly attenuated compared to vehicle treatment
[1]; vs vehicle, n=5
  AUC of histamine levels between 0 and 60 min: histamine levels decreased in two of the 5 dogs, no statistical significance was reached
  AUC of prostaglandin D2 levels between 0 and 60 min: prostaglandin D2 levels decreased in three dogs and increased in two dogs and no statistical significance was reached
[2]; dog, in vivo
  daily observations, adverse health effects: No adverse health effects were found
[2]; dogs, BID inhalation + intranasal instillation, Days 0 to 5
  tolerability: well tolerated
[3]
  average pH of the nebulizer solution: 8.85
